Source: US11286263B2, “Macrocyclic fluorine substituted indole derivatives” (The Broad Institute, Inc., priority 2017, dated 2022)
Counter-ions that a name gives are not always drawn. Like-named read-outs stand apart in the source and are kept apart here.

Legend:
MCL-1 = MCL-1 (Homo sapiens (Human), UniProt Q07820, K194A/K197A/R201A); test: Protein-protein interaction assay MCL-1/Noxa BH3 peptide (MCL-1 assay), TR-FRET; format: binding; details: MCL-1/Noxa BH3 peptide TR-FRET; median
Procedure: Protein-Protein Interaction Assay: MCL-1/Noxa BH3 Peptide (MCL-1 Assay)
The dose-dependent inhibition by the compounds described in this invention of the interaction between MCL-1 and the BH3 domain of Noxa (both human) was determined using a steady state binding competition assay with time-resolved fluorescence energy transfer (TR-FRET) readout. For that purpose MCL-1 (amino acids 173-321, N-terminal fused to Maltose Binding Protein (MBP) SEQ ID 1)) and a synthetic Noxa BH3-derived peptide of sequence Biotin-PEG2-PEG2-PAELEVE-Nva-ATQLRRFGDKLNFRQKLL-amide (SEQ ID 2) served as protein receptor and tracer ligand respectively. The MBP-MCL-1 was purchased from Beryllium (Bedford, Mass., USA). The expression and purification of this protein construct has been described elsewhere (DOI:10.1371/journal.pone.0125010). The Noxa BH3-derived peptide can be obtained from e.g. Biosyntan (Berlin, Germany).
In the assay 11 different concentrations of each compound (0.1 nM, 0.33 nM, 1.1 nM, 3.8 nM, 13 nM, 44 nM, 0.15 μM, 0.51 μM, 1.7 μM, 5.9 μM and 20 μM) were typically measured as duplicates in the same microtiter plate. For that, 100-fold concentrated DMSO solutions were prepared by serial dilutions (1:3.4) of a 2 mM stock solution in a clear, 384-well microtiter plate (Greiner Bio-One, Frickenhausen, Germany). From there, 50 nl were transferred in a dark test plate (Greiner Bio-One, Frickenhausen, Germany). The assay was initiated by addition of 2 μl of a 2,5-fold concentrated MBP-MCL-1 solution (usually for a 1 nM end concentration in 5 μl reaction volume) in aqueous assay buffer [50 mM Tris/HCl pH 7, 100 mM sodium chloride (NaCl), 50 mM potassium fluoride (KF), 0.005% Tween-20, 2 mM DTT, 0.1% bovine gamma globulin (BGG)] to the compounds in the assay plate. This was followed by a 10-minute incubation step at 22° C. for pre-equilibration of the putative complex between MBP-MCL-1 and the compounds. After that, 3 μl of a 1.67-fold concentrated solution (in assay buffer) consisting of Noxa BH3-derived peptide (1 nM end concentration) and TR-FRET detection reagents [1.67 nM anti-MBP-Eu cryptate and 1.67 nM streptavidin-XL665 (both from Cisbio Bioassays, Codolet, France)], were added.
The mixture was incubated in the dark for one hour at 22° C. and then overnight at 4° C. The formation of MCL-1/Noxa complexes was determined by measuring the resonance energy transfer of the anti-MBP-Eu-cryptate antibody to the streptavidin-XL665 present in the reaction. For that purpose, the fluorescence emission at 620 nm and 665 nm after excitation at 330-350 nm was measured in a TR-FRET measuring instrument, for instance a Rubystar or a Pherastar (both from BMG Lab Technologies, Offenburg, Germany) or a Viewlux (Perkin-Elmer). The ratio of the emission at 665 nm and at 622 nm was used as indicator of the amount of MCL-1/NOXA complexes present.
The resulting data (ratio) were normalized, taking 0% inhibition as the mean value of control measurements (usually 32 data points) where all reagents were included. In this case 50 nl DMSO were used instead of compounds. A 100% inhibition corresponded to the mean value of control measurements (usually 32 data points) where all reagents except MCL-1 were included. IC50 values were determined by regression analysis based on a 4 parameter equation (minimum, maximum, IC50, Hill; Y=Max+(Min−Max)/(1+(X/IC50)^Hill) using the Screener Software (Genedata).

SUDHL5 [1] = test: Induction of caspase-3/7 activity, SUDHL5 (Assay 4); format: cell-based
Procedure: (§1) Induction of Caspase-3/7 Activity upon Treatment of Cells with Selected Compounds
(§2) The BH3-domain of MCL-1 sequesters pro-apoptotic proteins, thereby inhibiting apoptosis. In contrast, MCL-1 inhibitors are expected to antagonize this effect leading to an increase in apoptosis, which can be determined by measuring the activity of caspase-3/7.
(§3) The activity of caspase-3/7 was determined in DLBCL (Diffuse large B-cell lymphoma) cell lines (SUDHL5 and SUDHL10) upon treatment with different compounds, using the Caspase-Glo® 3/7 reagent from Promega (G8092).
(§4) Rim wells were excluded. The cells were incubated for 3 h hours in a humidified incubator at 37° C.
(§5) For the evaluation of the results, the background measured with “medium-only” was subtracted from all other values. […] The Bella DRC Master Sheet was used to calculate EC50s, with fixed C0=1 and Cl=plateau/max induction for the reference compound.

SUDHL10 [2] = test: Induction of caspase-3/7 activity, SUDHL10 (Assay 4); format: cell-based
Procedure: as §1, §2, §3, §4, §5

SUDHL5 [3] = test: Antiproliferation assay SUDHL5 (Assay 7); format: cell-based
Procedure: (§6) Assessment of the Anti-Proliferative Effect of Compounds in Different Cell Lines
(§7) The impact of compounds on the proliferation of different cell lines was assessed using the CellTiter-Glo® Luminescent Cell Viability reagent from Promega (G7573).
(§8) In parallel, cells were plated in a reference (day 0) plate for time zero determination.
(§9) Rim wells were excluded. The cells were incubated for 72 h hours in a humidified incubator at 37° C. The day 0 plate was measured by adding 30 μL/well of CTG solution (CellTiter-Glo® Luminescent Cell Viability reagent, Promega G7573) to time zero wells in the reference plate followed by a 10 minutes incubation and luminescence reading at 0.1 ms. using the PHERAstar FS microplate reader (BMG Labtech).
(§10) After 72 h incubation, the treated plates were measured in the same way as the day 0 plate mentioned above.

MV-4-11 = test: Antiproliferation assay MV-4-11 (Assay 7); format: cell-based; details: MV-4-11 cells, CellTiter-Glo, single determinations, read-out: IC50 Antiproli MV-4-11
Procedure: as §6, §7, §8, §9, §10

AMO-1 = test: Antiproliferation assay AMO-1 (Assay 7); format: cell-based; details: AMO-1 cells, CellTiter-Glo, single determinations, read-out: IC50 Antiproli AMO-1
Procedure: as §6, §7, §8, §9, §10

SUDHL5 [4] = test: Induction of cytotoxicity, SUDHL5 (Assay 6); details: read-out: IC50 Cytotox SUDHL5 [M] (median), SUDHL5 cells, 5 h, CellTiter-Glo
SUDHL10 [5] = test: Induction of cytotoxicity, SUDHL10 (Assay 6); details: read-out: IC50 Cytotox SUDHL10 [M] (median), SUDHL10 cells, 5 h, CellTiter-Glo
Procedure: In principle, compounds that induce apoptosis will concomitantly induce cell cytotoxicity. Therefore, cytotoxicity assays were run in parallel in SUDHL5 and SUDHL10 cells.
The different cell lines were plated in culture medium (RPMI 1640 [GIBCO #22400-089] supplemented with 10% Fetal Bovine Serum) at a density of 3,300 cells in 30 μl/well in a sterile, solid black, flat bottom, polystyrene, TC-treated 384-well microplate (Corning #3571) using Multidrop Combi Reagent Dispenser. As a control, medium without cells was also added to the plate. Cells were incubated in a humidified incubator at 37° C. overnight. On the next day, the cells were treated with compounds (stock solution, 10 mM in DMSO) using the HP D300 Digital Dispenser in a concentration range of 3.3×10e-5 M (33 μM) to 5×10e-9 M (5 nM) in a single-dot curve with at least 16 dilutions and a DMSO concentration of 0.33%. Rim wells were excluded. The cells were incubated for 5 h hours in a humidified incubator at 37° C. After this incubation, 30 μl of CellTiter-Glo® Luminescent Cell Viability reagent (Promega, G7573) was added to each well using the Multidrop Combi Reagent Dispenser, followed by 15 min incubation on a shaker at room temperature. Finally, luminescence was read at 0.1 ms, with a gain of 3000 using the PHERAstar FS microplate reader (BMG Labtech).
The Bella DRC Master Sheet was used to calculate IC50s, with fixed CI=0 and C0=1.

A2780 = test: Antiproliferation assay A2780 (Assay 7); format: cell-based; details: A2780 cells, CellTiter-Glo, single determinations, read-out: IC50 Antiproli A2780
Procedure: as §6, §7, §8, §9, §10

[6] = 72 h, trifluoroacetic acid salt
[7] = SUDHL5 cells, 3 h, Caspase-Glo 3/7; median
[8] = SUDHL5 cells, 72 h, CellTiter-Glo; median; read-out: IC50 Antiproli SUDHL5 [M] (median)
[9] = SUDHL10 cells, 3 h, Caspase-Glo 3/7; median

Sequence of MCL-1 (Q07820 whole entry K194A/K197A/R201A, looked up): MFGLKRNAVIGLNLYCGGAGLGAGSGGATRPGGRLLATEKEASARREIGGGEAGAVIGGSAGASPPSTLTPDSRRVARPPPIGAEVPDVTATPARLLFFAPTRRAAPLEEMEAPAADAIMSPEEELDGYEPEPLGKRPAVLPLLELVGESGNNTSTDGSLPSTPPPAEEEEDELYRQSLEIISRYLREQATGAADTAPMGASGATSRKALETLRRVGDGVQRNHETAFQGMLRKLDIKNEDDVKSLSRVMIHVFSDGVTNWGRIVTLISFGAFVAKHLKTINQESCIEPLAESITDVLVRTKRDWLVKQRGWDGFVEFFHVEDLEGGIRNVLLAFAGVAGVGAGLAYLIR

Structure (SMILES): CCc1nn(C)c2c1-c1c(F)ccc3c(CCCOc4ccc(F)c5ccccc45)c(C(=O)O)n(c13)CCCCOC2 (racemic) [Example 41, (rac)-12-ethyl-13-fluoro-1-(3-((4-fluoronaphthalen-1-yl)oxy)propyl)-10-methyl-4,5,6,7,9,10-hexahydropyrazolo[4′,3′:9,10][1]oxa[6]azacycloundecino[8,7,6-hi]indole-2-carboxylic acid]
- IC50 (MCL-1): 0.002 µM
- EC50 (SUDHL5 [1]; Homo sapiens, SU-DHL-5, 3 h, SUDHL5 cells, Caspase-Glo 3/7, median): 2.2 µM
- EC50 (SUDHL10 [2]; Homo sapiens, SU-DHL10, 3 h, SUDHL10 cells, Caspase-Glo 3/7, median): 14 µM
- IC50 (SUDHL5 [3]; Homo sapiens, SU-DHL-5, 72 h, SUDHL5 cells, CellTiter-Glo, median, read-out: IC50 Antiproli SUDHL5 [M] (median)): 2e-06 M
- IC50 (MV-4-11; Homo sapiens, MV4-11, 72 h): 11 µM
- IC50 (MV-4-11; 72 h): 15 µM
- IC50 (AMO-1; 72 h): 12.8 µM
- IC50 (AMO-1; Homo sapiens, AMO1, 72 h): 15.2 µM
- IC50 (SUDHL5 [4]; Homo sapiens, SU-DHL-5, 5 h): 3e-06 M
- IC50 (SUDHL10 [5]; Homo sapiens, SU-DHL10, 5 h): 7.1e-06 M

Structure (SMILES): Cc1c2c(nn1C)CNCCCCn1c(C(=O)O)c(CCCOc3cccc4ccccc34)c3ccc(F)c-2c31 (racemic) [Example 47, (rac)-4-fluoro-2,3-dimethyl-7-[3-(1-naphthyloxy)propyl]-10,11,12,13,14,15-hexahydro-2H-pyrazolo[3′,4′:8,9][1,6]diazacycloundecino[10,11,1-hi]indole-8-carboxylic acid trifluoroacetic acid salt]
- IC50 (MCL-1): 0.00082 µM
- EC50 (SUDHL5 [1]; Homo sapiens, SU-DHL-5; SUDHL5 cells, 3 h, Caspase-Glo 3/7; median): 1.4 µM
- EC50 (SUDHL10 [2]; Homo sapiens, SU-DHL10; SUDHL10 cells, 3 h, Caspase-Glo 3/7; median): 5 µM
- IC50 (SUDHL5 [3]; Homo sapiens, SU-DHL-5; SUDHL5 cells, 72 h, CellTiter-Glo; median; read-out: IC50 Antiproli SUDHL5 [M] (median)): 2.1e-06 M
- IC50 (MV-4-11; Homo sapiens, MV4-11, 72 h): 1.02 µM
- IC50 (MV-4-11; [6]): 1.32 µM
- IC50 (A2780; [6]): 18.9 µM
- IC50 (A2780; Homo sapiens, A2780, 72 h): 20.9 µM
- IC50 (SUDHL5 [4]; Homo sapiens, SU-DHL-5, 5 h): 2.2e-06 M
- IC50 (SUDHL10 [5]; Homo sapiens, SU-DHL10, 5 h): 5.6e-06 M

Structure (SMILES): Cc1c2c(nn1C)COCCCCn1c(C(=O)O)c(CCCOc3cccc4ccccc34)c3ccc(F)c-2c31 (single isomer, unassigned; enantiomer 2) [Example 4, 4-fluoro-2,3-dimethyl-7-[3-(naphthalen-1-yloxy)propyl]-2,10,11,12,13,15-hexahydropyrazolo-[4′,3′:9,10][1,6]oxazacycloundecino[8,7,6-hi]indole-8-carboxylic acid-N-ethylethanamine salt (enantiomer 2)]
- IC50 (MCL-1): 0.065 µM
- EC50 (SUDHL5 [1]; [7]): > 33 µM
- IC50 (SUDHL5 [3]; [8]): > 3.3e-05 M
- IC50 (MV-4-11; 72 h, listed as 04): > 33 µM
- IC50 (A2780; 72 h, listed as 04): > 33 µM
- IC50 (SUDHL5 [4]): > 3.3e-05 M

Structure (SMILES): Cc1c2c(nn1C)COCCCCn1c(C(=O)O)c(CCCOc3ccc(F)c4ccccc34)c3ccc(F)c-2c31 (single isomer, unassigned; enantiomer 2) [Example 17, 4-fluoro-7-{3-[(4-fluoronaphthalen-1-yl)oxy]propyl}-2,3-dimethyl-2,10,11,12,13,15-hexahydro-pyrazolo[4′,3′:9,10][1,6]oxazacycloundecino[8,7,6-hi]indole-8-carboxylic acid (enantiomer 2)]
- IC50 (MCL-1): 0.06 µM
- EC50 (SUDHL5 [1]; [7]): > 33 µM
- EC50 (SUDHL10 [2]; [9]): > 33 µM
- IC50 (SUDHL5 [3]; [8]): 1.1e-05 M
- IC50 (MV-4-11; 72 h): 20.8 µM
- IC50 (AMO-1; 72 h): > 33 µM
- IC50 (SUDHL5 [4]): > 3.3e-05 M
- IC50 (SUDHL10 [5]): > 3.3e-05 M

Structure (SMILES): CCc1c2c(nn1C)COCCCCn1c(C(=O)O)c(CCCOc3ccc(F)c4ccccc34)c3ccc(F)c-2c31 (single isomer, unassigned; enantiomer 2) [Example 28, 3-ethyl-4-fluoro-7-{3-[(4-fluoronaphthalen-1-yl)oxy]propyl}-2-methyl-2,10,11,12,13,15-hexahydropyrazolo[4′,3′:9,10][1,6]oxazacycloundecino[8,7,6-hi]indole-8-carboxylic acid-N-ethylethanamine salt (enantiomer 2)]
- IC50 (MCL-1): 0.065 µM
- EC50 (SUDHL5 [1]; [7]): > 33 µM
- EC50 (SUDHL10 [2]; [9]): > 33 µM
- IC50 (SUDHL5 [3]; [8]): 1.2e-05 M
- IC50 (MV-4-11; 72 h): 13.8 µM
- IC50 (AMO-1; 72 h): > 33 µM
- IC50 (SUDHL5 [4]): 1.8e-05 M
- IC50 (SUDHL10 [5]): > 3.3e-05 M

Structure (SMILES): CCc1nn(C)c2c1-c1c(F)ccc3c(CCCOc4ccc(F)c5ccccc45)c(C(=O)O)n(c13)CCCCOC2 (single isomer, unassigned; enantiomer 2) [Example 43, 3-ethyl-4-fluoro-7-{3-[(4-fluoronaphthalen-1-yl)oxy]propyl}-1-methyl-1,10,11,12,13,15-hexahydropyrazolo[4′,3′:9,10][1,6]oxazacycloundecino[8,7,6-hi]indole-8-carboxylic acid (enantiomer 2)]
- IC50 (MCL-1): 0.11 µM
- EC50 (SUDHL5 [1]; [7]): > 33 µM
- EC50 (SUDHL10 [2]; [9]): > 33 µM
- IC50 (SUDHL5 [3]; [8]): 1.5e-05 M
- IC50 (MV-4-11; 72 h): 12.5 µM
- IC50 (AMO-1; 72 h): > 33 µM
- IC50 (SUDHL5 [4]): > 3.3e-05 M
- IC50 (SUDHL10 [5]): > 3.3e-05 M
